The source of these data is patent US10479795B2 (Incyte Corporation, priority 2016, dated 2019).

Where a name gives a salt, the structure may show the parent alone. Read-outs that look alike come from different tables or passages of the source.

For test [1], the system named is Phosphorylated Ribosomal Protein S6 (RPS6). Nature of the test: THP-1 RPS6 ELISA Assay. The test is classed as cell-based, Human. Conditions: THP-1 cells, read-out: PI3Kγ_THP1_RPS6_ELISA IC50. The gist of the method: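 IC50 values come from a curve of percent inhibition against log compound concentration, using phospho-RPS6 ELISA (450 nm) on THP-1 lysates. Cells were serum-starved overnight, exposed to compound for 2 h at 37 °C, then challenged 15 min with 10 nM MCP-1.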
In general terms: An ELISA detects its analyte on a solid surface through an enzyme-linked reagent.

The target of test [2] is PI3Kδ (p110δ/p85α) Recombinant Human Protein (Homo sapiens (Human), UniProt O00329). In words: PI3Kδ Scintillation Proximity Assay. The test is classed as biochemical. The gist of the method: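 Radiometric read-out: 33P-labelled PIP3 product captured on WGA SPA beads and counted, with IC50 fitted from percent activity relative to DMSO control. Enzyme (3.4 nM) was incubated 120 min at room temperature with 20 μM PIP2 and 2 μM ATP at pH 6.7, 2% DMSO.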
Sequence of PI3Kδ (p110δ/p85α) Recombinant Human Protein (O00329 whole entry): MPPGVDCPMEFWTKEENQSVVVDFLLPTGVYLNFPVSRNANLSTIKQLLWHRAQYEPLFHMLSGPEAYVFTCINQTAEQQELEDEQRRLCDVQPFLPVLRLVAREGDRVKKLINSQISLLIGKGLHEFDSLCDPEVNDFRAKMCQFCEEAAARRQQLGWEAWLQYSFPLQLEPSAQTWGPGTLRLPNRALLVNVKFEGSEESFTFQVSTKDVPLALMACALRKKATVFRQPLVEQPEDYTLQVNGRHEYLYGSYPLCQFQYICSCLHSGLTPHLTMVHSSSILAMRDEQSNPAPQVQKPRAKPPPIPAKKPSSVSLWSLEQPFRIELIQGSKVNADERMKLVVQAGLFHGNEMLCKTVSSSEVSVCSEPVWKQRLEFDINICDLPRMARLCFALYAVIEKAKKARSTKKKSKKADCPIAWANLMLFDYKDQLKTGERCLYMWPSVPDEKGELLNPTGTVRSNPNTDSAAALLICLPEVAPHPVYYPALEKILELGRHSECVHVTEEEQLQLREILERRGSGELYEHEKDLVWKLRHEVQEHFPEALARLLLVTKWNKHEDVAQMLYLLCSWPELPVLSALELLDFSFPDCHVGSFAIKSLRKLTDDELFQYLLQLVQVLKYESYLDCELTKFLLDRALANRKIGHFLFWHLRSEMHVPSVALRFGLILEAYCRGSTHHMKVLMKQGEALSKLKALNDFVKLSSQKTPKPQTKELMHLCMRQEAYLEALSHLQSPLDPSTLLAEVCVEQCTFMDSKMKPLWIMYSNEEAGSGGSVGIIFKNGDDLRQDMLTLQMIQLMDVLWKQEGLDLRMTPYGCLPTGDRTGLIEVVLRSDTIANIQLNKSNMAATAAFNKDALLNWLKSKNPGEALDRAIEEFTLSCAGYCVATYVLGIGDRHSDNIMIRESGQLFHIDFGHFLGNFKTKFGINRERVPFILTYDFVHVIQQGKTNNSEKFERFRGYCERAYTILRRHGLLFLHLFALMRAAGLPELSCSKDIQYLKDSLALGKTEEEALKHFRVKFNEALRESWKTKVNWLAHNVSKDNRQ
Sequence of PI3Kδ (p110δ/p85α) Recombinant Human Protein (P27986 whole entry partner): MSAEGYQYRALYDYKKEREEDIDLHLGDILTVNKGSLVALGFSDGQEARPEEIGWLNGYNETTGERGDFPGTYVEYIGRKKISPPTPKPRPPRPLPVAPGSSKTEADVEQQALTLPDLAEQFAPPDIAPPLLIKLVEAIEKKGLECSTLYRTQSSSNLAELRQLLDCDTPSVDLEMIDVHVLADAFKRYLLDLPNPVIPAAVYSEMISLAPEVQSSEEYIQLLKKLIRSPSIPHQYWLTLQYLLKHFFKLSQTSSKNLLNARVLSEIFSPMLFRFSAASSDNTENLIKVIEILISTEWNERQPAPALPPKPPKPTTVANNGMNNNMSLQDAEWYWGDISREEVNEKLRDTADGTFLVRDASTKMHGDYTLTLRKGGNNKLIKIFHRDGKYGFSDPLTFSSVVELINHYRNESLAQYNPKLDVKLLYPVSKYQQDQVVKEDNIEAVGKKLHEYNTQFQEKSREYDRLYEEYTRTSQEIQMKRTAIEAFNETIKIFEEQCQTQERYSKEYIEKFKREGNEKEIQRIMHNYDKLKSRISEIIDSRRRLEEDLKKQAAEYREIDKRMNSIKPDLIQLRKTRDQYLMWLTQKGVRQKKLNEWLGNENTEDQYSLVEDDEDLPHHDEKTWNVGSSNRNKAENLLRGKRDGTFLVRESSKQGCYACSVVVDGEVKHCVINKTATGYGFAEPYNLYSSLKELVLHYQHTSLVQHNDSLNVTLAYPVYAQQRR

For test [3], the target named is PI3Kγ (p110γ) Recombinant Human Protein (Homo sapiens (Human), UniProt P48736). In words: PI3K-γ Scintillation Proximity Assay. The test is classed as biochemical. The following applies: read-out: PI3Kγ IC50. The gist of the method: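 Radiometric SPA readout: […] bound to WGA beads after overnight shaking, IC50 derived from % activity of DMSO control. Reaction used human p110γ, 2 μM ATP, 20 μM PIP2, pH 6.7 MOPS buffer with MgCl2, DTT, CHAPS, 2% DMSO, room temperature.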
Sequence of PI3Kγ (p110γ) Recombinant Human Protein (P48736 whole entry): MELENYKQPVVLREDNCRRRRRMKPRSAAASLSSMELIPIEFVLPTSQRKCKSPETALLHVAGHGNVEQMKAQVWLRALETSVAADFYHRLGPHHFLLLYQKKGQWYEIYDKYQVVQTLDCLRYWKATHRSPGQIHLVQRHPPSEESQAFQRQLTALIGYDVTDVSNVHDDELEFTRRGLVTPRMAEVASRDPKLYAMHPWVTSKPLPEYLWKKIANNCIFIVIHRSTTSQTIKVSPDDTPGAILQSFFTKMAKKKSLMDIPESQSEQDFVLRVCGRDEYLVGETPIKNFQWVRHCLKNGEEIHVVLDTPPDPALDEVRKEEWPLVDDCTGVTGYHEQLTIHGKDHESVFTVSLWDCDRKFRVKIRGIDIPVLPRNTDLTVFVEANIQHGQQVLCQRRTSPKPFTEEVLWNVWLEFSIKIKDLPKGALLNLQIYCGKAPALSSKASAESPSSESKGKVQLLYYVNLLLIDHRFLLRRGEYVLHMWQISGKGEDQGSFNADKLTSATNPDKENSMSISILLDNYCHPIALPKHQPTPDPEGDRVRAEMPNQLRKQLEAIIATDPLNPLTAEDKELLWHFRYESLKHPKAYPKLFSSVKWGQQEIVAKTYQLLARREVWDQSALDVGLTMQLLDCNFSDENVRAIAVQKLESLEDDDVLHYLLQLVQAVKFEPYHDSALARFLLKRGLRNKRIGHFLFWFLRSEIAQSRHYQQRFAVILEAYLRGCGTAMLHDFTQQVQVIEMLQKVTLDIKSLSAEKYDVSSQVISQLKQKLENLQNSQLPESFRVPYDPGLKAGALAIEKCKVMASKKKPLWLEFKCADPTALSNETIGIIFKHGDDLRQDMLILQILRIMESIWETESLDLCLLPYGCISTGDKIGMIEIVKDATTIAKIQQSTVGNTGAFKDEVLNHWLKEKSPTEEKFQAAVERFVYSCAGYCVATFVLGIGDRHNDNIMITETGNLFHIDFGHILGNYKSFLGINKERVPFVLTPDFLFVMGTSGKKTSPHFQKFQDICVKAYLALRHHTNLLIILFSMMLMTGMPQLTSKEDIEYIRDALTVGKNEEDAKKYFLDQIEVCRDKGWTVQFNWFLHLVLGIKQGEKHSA
For orientation: SPA uses beads or plates that emit light when radiolabelled molecules are held near them.

The term IC50 denotes the point on the concentration scale where inhibition reaches its midpoint. As for `COC(=O)NC12CC(NS(=O)(=O)c3ccc(C)c(-c4cnc5c(N)ncnn45)c3)(C1)C2` [Example 115, Methyl 3-(3-(4-aminoimidazo[1,2-f][1,2,4]triazin-7-yl)-4-methylphenylsulfonamido)bicyclo[1.1.1]pentan-1-ylcarbamate trifluoroacetate salt], the IC50 was 100 to 500 nM in test [1], 500 to 2000 nM in test [2] and less than 100 nM in test [3].

For the compound `Cc1ccc(S(=O)(=O)N2CC3(C2)CC(O)(C(F)(F)F)C3)cc1-c1cnc2c(N)ncnn12` [Example 141, 2-((3-(4-aminoimidazo[2,1-f][1,2,4]triazin-7-yl)-4-methylphenyl)sulfonyl)-6-(trifluoromethyl)-2-azaspiro[3.3]heptan-6-ol], the IC50 was 100 to 500 nM in test [1] (Homo sapiens), 100 to 500 nM in test [2] and less than 100 nM in test [3].

Take `CCc1cn2c(-c3cc(S(=O)(=O)N[C@H]4CC[C@H](O)CC4)ccc3C)cnc2c(N)n1` [Example 38, 3-(8-Amino-6-ethylimidazo[1,2-a]pyrazin-3-yl)-N-(trans-4-hydroxycyclohexyl)-4-methylbenzenesulfonamide]: the concentration for half-maximal inhibition (IC50) in test [1] (Homo sapiens), in test [2] and in test [3] was less than 100 nM throughout.

Turning to `Cc1ccc(S(=O)(=O)N[C@H]2CC[C@H](O)CC2)cc1-c1cnc2c(N)nc(-c3ccccc3)cn12` [Example 23, 3-[8-Amino-6-phenylimidazo[1,2-a]pyrazin-3-yl]-N-(trans-4-hydroxycyclohexyl)-4-methylbenzenesulfonamide], the IC50 in test [1] (Homo sapiens), in test [2] and in test [3] was less than 100 nM in each case.

For `COc1cc(C)c(-c2cnc3c(N)nccn23)cc1S(=O)(=O)N[C@H]1CC[C@H](O)CC1` [Example 83, 5-(8-aminoimidazo[1,2-a]pyrazin-3-yl)-N-(trans-4-hydroxycyclohexyl)-2-methoxy-4-methylbenzenesulfonamide], the IC50 was greater than 1000 nM in test [1] (Homo sapiens), less than 100 nM in test [2] and 100 to 500 nM in test [3].

For `Cc1ccc(S(=O)(=O)NC23CC(c4cnco4)(C2)C3)cc1-c1cnc2c(N)ncnn12` [Example 111, 3-(4-Aminoimidazo[1,2-f][1,2,4]triazin-7-yl)-4-methyl-N-(3-(oxazol-5-yl)bicyclo[1.1.1]pentan-1-yl)benzenesulfonamide trifluoroacetate salt], the figures for the concentration for half-maximal inhibition (IC50) in test [1], in test [2] and in test [3] were 100 to 500 nM, 100 to 500 nM and less than 100 nM, respectively.

Turning to `Cc1ccc(S(=O)(=O)N2CCC[C@@H](N(C)C)C2)cc1-c1cnc2c(N)nc(C(F)(F)F)cn12` [Example 309, (R)-3-(5-((3-(dimethylamino)piperidin-1-yl)sulfonyl)-2-methylphenyl)-6-(trifluoromethyl)imidazo[1,2-a]pyrazin-8-amine], the concentration for half-maximal inhibition (IC50) was 100 to 500 nM in test [1] (Homo sapiens), 500 to 2000 nM in test [2] and less than 100 nM in test [3].

Take `Cc1ccc(S(=O)(=O)NC(C)(C)C(N)=O)cc1-c1cnc2c(N)ncnn12` [Example 190, 2-((3-(4-aminoimidazo[2,1-f][1,2,4]triazin-7-yl)-4-methylphenyl)sulfonamido)-2-methylpropanamide trifluoroacetate]: the IC50 was greater than 1000 nM in test [1] (Homo sapiens), 500 to 2000 nM in test [2] and less than 100 nM in test [3].

Regarding `Cc1ccc(S(=O)(=O)NC23CC(Cn4cncn4)(C2)C3)cc1-c1cnc2c(N)nc(C(F)(F)F)nn12` [Example 338, N-(3-((1H-1,2,4-triazol-1-yl)methyl)bicyclo[1.1.1]pentan-1-yl)-3-(4-amino-2-(trifluoromethyl)imidazo[1,2-f][1,2,4]triazin-7-yl)-4-methylbenzenesulfonamide], the 50% inhibitory concentration (IC50) in test [1] was 100 to 500 nM; in test [2], 100 to 500 nM; in test [3], less than 100 nM.

As to `Cc1ccc(S(=O)(=O)N[C@H]2CC[C@@H](C#N)C2)cc1-c1cnc2c(N)nc(C(F)(F)F)nn12` (single isomer, unassigned) [Example 320], the results for the IC50 in test [1], in test [2] and in test [3] were 100 to 500 nM, 100 to 500 nM and less than 100 nM, respectively.

In the case of `Cc1ccc(S(=O)(=O)N[C@@H](C)CO)cc1-c1cnc2c(N)nc(C(F)(F)F)nn12` [Example 249, (S)-3-(4-Amino-2-(trifluoromethyl)imidazo[2,1-f][1,2,4]triazin-7-yl)-N-(1-hydroxypropan-2-yl)-4-methylbenzenesulfonamide], the half-inhibitory concentration (IC50) in test [1] (Homo sapiens) is 100 to 500 nM; in test [2], 100 to 500 nM; in test [3], less than 100 nM.

Regarding `O=S(=O)(O)c1ccccc1.[2H]C([2H])([2H])c1ccc(S(=O)(=O)NC23CCC(C#N)(C2)C3)cc1-c1cnc2c(N)ncnn12` [Example 255, 3-(4-Aminoimidazo[2,1-f][1,2,4]triazin-7-yl)-N-(4-cyanobicyclo[2.1.1]hexan-1-yl)-4-(methyl-d3)benzenesulfonamide crystalline benzenesulfonic acid salt], the IC50 is less than 100 nM in test [1] (Homo sapiens), 100 to 500 nM in test [2] and less than 100 nM in test [3].

For the compound `Cc1cn2c(-c3ccc(F)c(S(=O)(=O)NC45CCC(C#N)(C4)C5)c3)cnc2c(N)n1` [Example 380, 5-(8-Amino-6-methylimidazo[1,2-a]pyrazin-3-yl)-N-(4-cyanobicyclo[2.1.1]hexan-1-yl)-2-fluorobenzenesulfonamide trifluoroacetate salt], the concentration for half-maximal inhibition (IC50) in test [1] (Homo sapiens) was greater than 1000 nM; in test [2], 500 to 2000 nM; in test [3], less than 100 nM.

For `Cc1ccc(S(=O)(=O)N2CCC[C@H]2CO)cc1-c1cnc2c(N)nc(C(F)(F)F)nn12` [Example 347, (S)-(1-((3-(4-amino-2-(trifluoromethyl)imidazo[2,1-f][1,2,4]triazin-7-yl)-4-methylphenyl)sulfonyl)pyrrolidin-2-yl)methanol], the IC50 was less than 100 nM in test [1] (Homo sapiens), 100 to 500 nM in test [2] and less than 100 nM in test [3].

Consider `Cc1ccc(S(=O)(=O)NC23CCC(CO)(C2)C3)cc1-c1cnc2c(N)nc(C(F)(F)F)nn12` [Example 328, 3-(4-Amino-2-(trifluoromethyl)imidazo[1,2-f][1,2,4]triazin-7-yl)-N-(4-(hydroxymethyl)bicyclo[2.1.1]hexan-1-yl)-4-methylbenzenesulfonamide trifluoroacetate salt], for which the values for the IC50 in test [1], in test [2] and in test [3] were less than 100 nM, 100 to 500 nM and less than 100 nM, respectively.

Regarding `Cc1cc(C)c(S(=O)(=O)NC23CCC(CO)(C2)C3)cc1-c1cnc2c(N)ncnn12` [Example 363, 5-(4-Aminoimidazo[1,2-f][1,2,4]triazin-7-yl)-N-(4-(hydroxymethyl)bicyclo[2.1.1]hexan-1-yl)-2,4-dimethylbenzenesulfonamide], the half-maximal inhibitory concentration (IC50) in test [1] is 100 to 500 nM; in test [2], 500 to 2000 nM; in test [3], less than 100 nM.

For the compound `COC(=O)C12CC(NS(=O)(=O)c3ccc(C)c(-c4cnc5c(N)nc(C(F)(F)F)cn45)c3)(C1)C2` [Example 277, Methyl 3-(3-(8-amino-6-(trifluoromethyl)imidazo[1,2-a]pyrazin-3-yl)-4-methylphenylsulfonamido)bicyclo[1.1.1]pentane-1-carboxylate trifluoroacetate salt], the values for the concentration for half-maximal inhibition (IC50) in test [1] (Homo sapiens), in test [2] and in test [3] were less than 100 nM, 100 to 500 nM and less than 100 nM, respectively.

Take `Cc1ccc(S(=O)(=O)NC2CCC(F)(F)CC2)cc1-c1cnc2c(N)ncnn12` [Example 122, 3-(4-aminoimidazo[2,1-f][1,2,4]triazin-7-yl)-N-(4,4-difluorocyclohexyl)-4-methylbenzenesulfonamide]: the concentration for half-maximal inhibition (IC50) in test [1] (Homo sapiens) is 100 to 500 nM; in test [2], 500 to 2000 nM; in test [3], less than 100 nM.

With `Cc1ccc(S(=O)(=O)NC23CC(C(=O)N(C)C)(C2)C3)cc1-c1cnc2c(N)ncnn12` [Example 96, 3-(3-(4-Aminoimidazo[1,2-f][1,2,4]triazin-7-yl)-4-methylphenylsulfonamido)-N,N-dimethylbicyclo[1.1.1]pentane-1-carboxamide trifluoroacetate salt], the IC50 in test [1] is greater than 1000 nM; in test [2], 100 to 500 nM; in test [3], less than 100 nM.

`[2H]C([2H])([2H])c1ccc(S(=O)(=O)NC23CCC(O)(C2)C3)cc1-c1cnc2c(N)nc(C(F)(F)F)cn12` [Example 252, 3-(8-Amino-6-(trifluoromethyl)imidazo[1,2-a]pyrazin-3-yl)-N-(4-hydroxybicyclo[2.1.1]hexan-1-yl)-4-(methyl-d3)benzenesulfonamide]: the IC50 is 100 to 500 nM in test [1] (Homo sapiens), 100 to 500 nM in test [2] and less than 100 nM in test [3].

On to `Cc1ccc(S(=O)(=O)NCCN2CCS(=O)(=O)CC2)cc1-c1cnc2c(N)ncnn12` [Example 129, 3-(4-aminoimidazo[2,1-f][1,2,4]triazin-7-yl)-N-(2-(1,1-dioxidothiomorpholino)ethyl)-4-methylbenzenesulfonamide], for which the IC50 was less than 100 nM in test [1] (Homo sapiens), 100 to 500 nM in test [2] and less than 100 nM in test [3].
